What was measured:
[1] = target: T1, Brd4 bromodomain 1 (BRD4(1)) (Homo sapiens, UniProt O60885); assay: Inhibition of tetra-acetylated histone H4 binding to BET bromodomains (TR-FRET); parameters: key: Active: Compounds with an IC50 value less than 30 μM were deemed to be active.; Not Active: Compounds with an IC50 value less than 30 μM were deemed to be active; conditions: first bromodomain of Brd4, tetra-acetylated histone H4 peptide
T1 construct: made in house; host or cells: E. coli BL21(DE3)
Protocol: Proteins were cloned and overexpressed with a N-terminal 6×His tag, then purified by nickel affinity followed by size exclusion chromatography. Briefly, E. coli BL21(DE3) cells were transformed with a recombinant expression vector encoding N-terminally Nickel affinity tagged bromodomains from Brd2, Brd3, Brd4. Cell cultures were incubated at 37° C. with shaking to the appropriate density and induced overnight with IPTG. The supernatant of lysed cells was loaded onto Ni-IDA column for purification. Eluted protein is pooled, concentrated and further purified by size exclusion chromatography. Fractions representing monomeric protein were pooled, concentrated, aliquoted, and frozen at −80° C. for use in subsequent experiments.
Binding of tetra-acetylated histone H4 and BET bromodomains was confirmed by a Time Resolved Fluorescence Resonance Energy Transfer (TR-FRET) method. N-terminally His-tagged bromodomains (200 nM) and biotinylated tetra-acetylated histone H4 peptide (25-50 nM, Millipore) were incubated in the presence of Europium Cryptate-labeled streptavidin (Cisbio Cat. #610SAKLB) and XL665-labeled monoclonal anti-His antibody (Cisbio Cat. #61HISXLB) in a white 96 well microtiter plate (Greiner). For inhibition assays, serially diluted test compound was added to these reactions in a 0.2% final concentration of DMSO. Final buffer concentrations were 30 mM HEPES pH 7.4, 30 mM NaCl, 0.3 mM CHAPS, 20 mM phosphate pH 7.0, 320 mM KF, 0.08% BSA). After a 2-h incubation at room temperature, the fluorescence by FRET was measured at 665 and 620 nm by a SynergyH4 plate reader (Biotek). The binding inhibitory activity was shown by a decrease in 665 nm fluorescence relative to 620 nm. IC50 values were determined from a dose response curve.

human AML MV-4-11 cells = assay: Inhibition of cell proliferation in cancer cell lines (CellTiter Aqueous One); assay type: cell-based; parameters: key: Active: Compounds with an IC50 value less than 30 μM were deemed to be active.; Not Active: Compounds with an IC50 value less than 30 μM were deemed to be active; conditions: 72 h
Protocol: MV4-11 cells: 96-well plates were seeded with 5×10^4 cells per well of exponentially growing human AML MV-4-11 (CRL-9591) cells and immediately treated with two-fold dilutions of test compounds, ranging from 30 μM to 0.2 μM. Triplicate wells were used for each concentration, as well as a media only and three DMSO control wells. The cells and compounds were incubated at 37° C., 5% CO2 for 72 h before adding 20 μL of the CellTiter Aqueous One Solution (Promega) to each well and incubating at 37° C., 5% CO2 for an additional 3-4 h. The absorbance was taken at 490 nm in a spectrophotometer and the percentage of proliferation relative to DMSO-treated cells was calculated after correction from the blank well. IC50 were calculated using the GraphPad Prism software.

c-myc in MV4-11 cells = assay: Inhibition of c-myc expression in cancer cell lines (mRNA, real-time PCR); assay type: cell-based, Human; parameters: key: Active: Compounds with an IC50 value less than 30 μM were deemed to be active.; Not Active: Compounds with an IC50 value less than 30 μM were deemed to be active; conditions: 3 h
Protocol: MV4-11 cells (2.5×10^4 cells) were plated in 96 well U-bottom plates with test compound or DMSO (0.1%), and incubated for 3 h at 37° C. Cells were then harvested by centrifugation, lysed, and mRNA was isolated using the mRNA catcher plus kit (Invitrogen). Reverse transcription of the mRNA and duplex amplification of the c-myc and cyclophilin cDNAs was performed using the RNA Ultrasense kit (Invitrogen) and a ViiA7 real-time PCR machine (Applied Biosystems). IC50 values were determined from a dose response curve.

Row | Compound | FRET activity BRD4(1) [1] | Cell Proliferation activity (IC50 < 30 μM) (human AML MV-4-11 cells) | melting point [°C] | c-myc activity (IC50 < 30 μM) (c-myc in MV4-11 cells)
1 | COc1ccc(-c2nc3cc(OC)cc(OC)c3c(=O)[nH]2)c(NCCN2CCOCC2)c1 [Example 14, 5,7-Dimethoxy-2-(4-methoxy-2-((2-morpholinoethyl)amino)phenyl)-quinazolin-4(3H)-one] | Active | Not Active | 239 to 240 | –
2 | COc1cnc(-c2nc3cc(OC)cc(OC)c3c(=O)[nH]2)c(NC2CCN(C(C)C)CC2)c1 [Example 30, 2-(3-((1-Isopropylpiperidin-4-yl)amino)-5-methoxypyridin-2-yl)-5,7-dimethoxyquinazolin-4(3H)-one] | Active | Active | 207 to 208 | –
3 | COc1cc(OC)c2c(=O)[nH]c(-c3ncc(OCCO)cc3NC3CCN(C(C)C)CC3)nc2c1 [Example 62, 2-[5-(2-Hydroxyethoxy)-3-(l-isopropylpiperidin-4-ylamino)pyridin-2-yl]-5,7-dimethoxyquinazolin-4(3H)-one] | Active | Active | 231 to 233 | Active
4 | COc1ccc(-c2nc3cc(OC)cc(OC)c3c(=O)[nH]2)c(NCC2CCN(C(C)C)C2)c1 (stereo not shown) [Example 16, 2-(2-(((1-Isopropylpyrrolidin-3-yl)methyl)amino)-4-methoxyphenyl)-5,7-dimethoxyquinazolin-4(3H)-one] | Active | Active | 228 to 230 | Active
5 | COc1ccc(-c2nc3cc(OC)cc(OC)c3c(=O)[nH]2)c(NC2CCOCC2)c1 [Example 9, 5,7-dimethoxy-2-(4-Methoxy-2-((tetrahydro-2H-pyran-4-yl)amino)-phenyl)quinazolin-4(3H)-one] | Active | Not Active | 286 to 287 | –
6 | COc1cc(OC)c2c(=O)[nH]c(-c3ncc(OCCNC(C)C)cc3NC3CCN(C(C)C)CC3)nc2c1 [Example 67, 2-{5-[2-(Isopropylamino)ethoxy]-3-(1-isopropylpiperidin-4-ylamino)pyridin-2-yl}-5,7-dimethoxyquinazolin-4(3H)-one] | Active | Active | 178 to 181 | Active
7 | COc1ccc(-c2nc3cc(OC)cc(OC)c3c(=O)[nH]2)c(NCCCN2CCCC2)c1 [Example 15, 5,7-Dimethoxy-2-(4-methoxy-2-((3-(pyrrolidin-1-yl)propyl)amino)phenyl)quinazolin-4(3H)-one] | Active | Active | – | Active
8 | COc1cc(OC)c2c(=O)[nH]c(-c3ncccc3NC3CCN(C(=O)N(C)C)CC3)nc2c1 [Example 42, 4-((2-(5,7-Dimethoxy-4-oxo-3,4-dihydroquinazolin-2-yl)pyridin-3-yl)amino)-N,N-dimethylpiperidine-1-carboxamide] | Active | Active | 195 to 197 | Active
9 | COc1ccc(CNc2cc(OC)c3c(=O)[nH]c(-c4ncccc4NC4CCN(C(C)C)CC4)nc3c2)cc1 [Example 61, 2-(3-((1-Isopropylpiperidin-4-yl)amino)pyridin-2-yl)-5-methoxy-7-((4-methoxybenzyl)amino)quinazolin-4(3H)-one] | Active | Active | 220 to 222 | Active
10 | COc1ccc(-c2nc3cc(OC)cc(OC)c3c(=O)[nH]2)c([S+]([O-])C2CCN(C)CC2)c1 (stereo not shown) [Example 23, 5,7-Dimethoxy-2-[4-methoxy-2-(1-methylpiperidin-4-ylsulfinyl)phenyl]quinazolin-4(3H)-one] | Active | Not Active | 263 to 265 | –
11 | COc1ccc(-c2nc3cc(OC)cc(OC)c3c(=O)[nH]2)c(NCC2CCCN2C(C)C)c1 (stereo not shown) [Example 17, 2-(2-(((1-Isopropylpyrrolidin-2-yl)methyl)amino)-4-methoxyphenyl)-5,7-dimethoxyquinazolin-4(3H)-one] | Active | – | 207 to 209 | Active
12 | COc1cc(OC)c2c(=O)[nH]c(-c3ncccc3NC3CCN(CC(C)(C)O)CC3)nc2c1 [Example 59, 2-(3-((1-(2-Hydroxy-2-methylpropyl)piperidin-4-yl)amino)pyridin-2-yl)-5,7-dimethoxyquinazolin-4(3H)-one] | Active | Active | 220 to 221 | Active
13 | COc1ccc(-c2nc3cc(OC)cc(OC)c3c(=O)[nH]2)c(NCCCN2CCN(C)CC2)c1 [Example 21] | Active | Active | 220 to 222 | Active
14 | COc1cc(OC)c2c(=O)[nH]c(-c3ncccc3N[C@H]3CC[C@@H](C(=O)NC(C)C)CC3)nc2c1 [Example 63, cis-4-((2-(5,7-Dimethoxy-4-oxo-3,4-dihydroquinazolin-2-yl)pyridin-3-yl)amino)-N-isopropylcyclohexane-1-carboxamide] | Active | Not Active | 256 to 257 | –
15 | COc1cc(OC)c2c(=O)[nH]c(-c3ncc(OCCN4CCCC4)cc3NC3CCN(C(C)C)CC3)nc2c1 [Example 66, 2-{3-(1-Isopropylpiperidin-4-ylamino)-5-[2-(pyrrolidin-1-yl)ethoxy]pyridin-2-yl}-5,7-dimethoxyquinazolin-4(3H)-one] | Active | Active | 166 to 169 | Active
16 | COc1cnc(-c2nc3cc(OC)cc(OC)c3c(=O)[nH]2)c(NC2CCN(C)CC2)c1 [Example 40, 5,7-Dimethoxy-2-(5-methoxy-3-((1-methylpiperidin-4-yl)amino)pyridin-2-yl)quinazolin-4(3H)-one] | Active | – | 191 to 193 | –

— patent publication US10500209B2, “Quinazolinones as bromodomain inhibitors” (Zenith Epigenetics Ltd., priority 2013, dated 2019)
